Measurements as given in the supplement of paper PMC10627819.
Values after ≈ are worked out from the molar mass of the structure shown.

How the values were obtained:
[1] = test system: S. aureus DSM 20231
[2] = test system: B. subtilis 168
[3] = test system: S. aureus Newman
[4] = test system: S. pneumoniae D39V
[5] = test system: S. aureus DSM 20231; test: fitness (endpoint OD595 vs no drug) (fraction); higher = more growth
Procedure, shortened: (§1)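 With the first reading as background, OD595 was measured every 30 min for 14 h in 384-well plates kept at 37 °C and inoculated at OD595 0.01. TSB, LB Lennox or CY was the medium. Fitness is the optical density at the transition into stationary phase divided by the robust mean of no-drug control wells, with a cap of 1.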

[6] = test system: B. subtilis 168; test: as above
Procedure, shortened: as §1

[7] = test system: S. aureus Newman; test: as above
Procedure, shortened: as §1

[8] = test system: S. pneumoniae D39V; test: as above
Procedure, shortened: as §1

[9] = test system: S. aureus DSM 20231; test: Bliss interaction score (quartile over a dose matrix) (fitness difference); higher = more antagonism (negative = synergy)
Procedure, shortened: (§2)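 Fitness was defined as normalised growth: OD595 at the start of stationary phase divided by the plate's robust no-drug mean and capped at 1. Single-drug fitness was inferred from combination measurements. The Bliss score is observed fitness minus the product of the single-drug values, summarised by quartiles across technical, biological and donor/recipient replicates.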

[10] = test system: B. subtilis 168; test: as above
Procedure, shortened: as §2

[11] = test system: S. aureus Newman; test: as above
Procedure, shortened: as §2

[12] = test system: S. pneumoniae D39V; test: as above
Procedure, shortened: as §2
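Wherever Bliss interaction score (quartile over a dose matrix) is given: first quartile when negative (synergy) and third quartile when positive (antagonism).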

Cc1cc(NS(=O)(=O)c2ccc(N)cc2)no1 [Sulfamethoxazol]
Settings	MIC [µg/mL]
[1]	> 16
[2]	> 16
[3]	> 16
[4]	16 (≈ 63.2 µM)

fitness
Settings	[5]	[6]	[7]	[8]
1 µg/mL	0.976	0.975	0.968	0.954
2 µg/mL	0.946	0.948	0.984	0.984
4 µg/mL	0.943	0.915	0.978	0.987

Cc1cc(NS(=O)(=O)c2ccc(N)cc2)no1 [Sulfamethoxazol] + CC1=C\[C@@H](O)CC(=O)Cc2nc(co2)C(=O)N2CCC=C2C(=O)O[C@H](C(C)C)[C@H](C)/C=C/C(=O)NC\C=C\1 [Virginiamycin M1]
fitness
Settings	first compound 1 µg/mL	first compound 2 µg/mL	first compound 4 µg/mL
[5], partner 0.0625 µg/mL	≥ 1	≥ 1	0.964
[5], partner 0.125 µg/mL	≥ 1	0.995	0.955
[5], partner 0.25 µg/mL	0.944	0.971	0.95
[6], partner 0.0625 µg/mL	0.887	0.905	0.901
[6], partner 0.125 µg/mL	0.878	0.876	0.901
[6], partner 0.25 µg/mL	0.983	0.919	0.993
[7], partner 0.0625 µg/mL	≥ 1	≥ 1	≥ 1
[7], partner 0.125 µg/mL	≥ 1	≥ 1	≥ 1
[7], partner 0.25 µg/mL	≥ 1	≥ 1	≥ 1
[8], partner 0.5 µg/mL	0.992	0.99	0.928
[8], partner 1 µg/mL	0.988	0.986	0.917
[8], partner 2 µg/mL	0.906	0.93	0.925

one replicate
Settings	fitness
[5], first compound 1 µg/mL, partner 0.5 µg/mL	0.88
[5], first compound 1 µg/mL, partner 1 µg/mL	0.709
[5], first compound 2 µg/mL, partner 0.5 µg/mL	0.915
[5], first compound 2 µg/mL, partner 1 µg/mL	0.679
[5], first compound 4 µg/mL, partner 0.5 µg/mL	0.797
[5], first compound 4 µg/mL, partner 1 µg/mL	0.8
[6], first compound 0.5 µg/mL, partner 0.0625 µg/mL	0.982
[6], first compound 0.5 µg/mL, partner 0.125 µg/mL	0.928
[6], first compound 0.5 µg/mL, partner 0.25 µg/mL	≥ 1
[7], first compound 1 µg/mL, partner 0.5 µg/mL	0.873
[7], first compound 1 µg/mL, partner 1 µg/mL	0.869
[7], first compound 1 µg/mL, partner 2 µg/mL	0.841
[7], first compound 2 µg/mL, partner 0.5 µg/mL	0.911
[7], first compound 2 µg/mL, partner 1 µg/mL	0.925
[7], first compound 2 µg/mL, partner 2 µg/mL	0.809
[7], first compound 4 µg/mL, partner 0.5 µg/mL	0.956
[7], first compound 4 µg/mL, partner 1 µg/mL	0.908
[7], first compound 4 µg/mL, partner 2 µg/mL	0.839
[7], first compound 8 µg/mL, partner 0.0625 µg/mL	0.905
[7], first compound 8 µg/mL, partner 0.125 µg/mL	0.921
[7], first compound 8 µg/mL, partner 0.25 µg/mL	0.945
[8], first compound 1 µg/mL, partner 0.15 µg/mL	0.905
[8], first compound 1 µg/mL, partner 0.3 µg/mL	0.895
[8], first compound 2 µg/mL, partner 0.15 µg/mL	0.923
[8], first compound 2 µg/mL, partner 0.3 µg/mL	0.902
[8], first compound 4 µg/mL, partner 0.15 µg/mL	0.92
[8], first compound 4 µg/mL, partner 0.3 µg/mL	0.913

Settings	Bliss interaction score
[9]	0.0829
[10]	0.0577
[11]	0.0283
[12]	-0.05

CC[C@H]1OC(=O)[C@H](C)C(=O)[C@H](C)[C@@H](O[C@@H]2O[C@H](C)C[C@H](N(C)C)[C@H]2O)[C@](C)(OC)C[C@@H](C)C(=O)[C@H](C)[C@H]2N(CCCCn3cnc(-c4cccnc4)c3)C(=O)O[C@]12C [Telithromycin]
Settings	MIC [µg/mL]
[1]	0.15 (≈ 0.185 µM)
[3]	0.15 (≈ 0.185 µM)
[4]	0.04 (≈ 0.0493 µM)

Oc1cc(Cl)ccc1Oc1ccc(Cl)cc1Cl [Triclosan]
Settings	MIC [µg/mL]
[1]	0.08 (≈ 0.276 µM)
[4]	16 (≈ 55.3 µM)

CC1=C\[C@@H](O)CC(=O)Cc2nc(co2)C(=O)N2CCC=C2C(=O)O[C@H](C(C)C)[C@H](C)/C=C/C(=O)NC\C=C\1 [Virginiamycin M1]
Settings	MIC [µg/mL]
[2]	0.5 (≈ 0.951 µM)
[3]	2 (≈ 3.81 µM)
[4]	4 (≈ 7.61 µM)

fitness
Settings	0.0625 µg/mL	0.125 µg/mL	0.25 µg/mL	0.5 µg/mL	1 µg/mL	2 µg/mL
[5]	0.994	≥ 1	≥ 1	–	–	–
[6]	0.956	0.943	0.959	–	–	–
[7]	0.989	1	≥ 1	–	–	–
[8]	–	–	–	≥ 1	0.997	0.994
